In assay [1] the target is T1, human progesterone receptor(PR) (Homo sapiens, UniProt P06401).
T1 construct: expressed in transfected cells; host or cells: HEK293T
T1 sequence (P06401 1-933): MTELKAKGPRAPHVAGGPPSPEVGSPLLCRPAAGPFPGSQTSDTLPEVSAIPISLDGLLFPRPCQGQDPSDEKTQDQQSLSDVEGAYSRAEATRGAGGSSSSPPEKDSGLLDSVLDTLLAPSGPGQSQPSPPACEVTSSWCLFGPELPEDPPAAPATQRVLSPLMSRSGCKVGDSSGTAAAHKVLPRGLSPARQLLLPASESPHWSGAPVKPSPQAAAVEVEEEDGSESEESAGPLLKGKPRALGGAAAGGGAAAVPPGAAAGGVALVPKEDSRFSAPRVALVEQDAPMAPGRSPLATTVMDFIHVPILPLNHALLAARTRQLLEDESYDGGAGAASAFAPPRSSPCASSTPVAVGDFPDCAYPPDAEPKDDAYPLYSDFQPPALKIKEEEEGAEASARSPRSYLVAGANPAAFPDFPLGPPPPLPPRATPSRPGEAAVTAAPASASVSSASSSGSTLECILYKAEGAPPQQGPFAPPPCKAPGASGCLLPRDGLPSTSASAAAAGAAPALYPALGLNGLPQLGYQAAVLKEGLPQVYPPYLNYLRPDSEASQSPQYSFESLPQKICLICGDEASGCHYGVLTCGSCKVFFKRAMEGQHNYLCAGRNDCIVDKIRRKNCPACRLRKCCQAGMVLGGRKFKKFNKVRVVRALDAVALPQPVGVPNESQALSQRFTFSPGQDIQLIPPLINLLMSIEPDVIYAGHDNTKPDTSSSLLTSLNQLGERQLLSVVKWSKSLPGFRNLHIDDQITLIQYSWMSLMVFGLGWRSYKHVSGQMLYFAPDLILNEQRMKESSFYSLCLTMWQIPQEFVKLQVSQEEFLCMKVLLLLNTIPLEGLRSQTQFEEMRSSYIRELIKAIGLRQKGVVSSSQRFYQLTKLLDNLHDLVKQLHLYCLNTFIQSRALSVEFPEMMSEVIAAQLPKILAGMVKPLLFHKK
The assay can be described thus: Test of progesterone receptor antagonist activity (MMTV-luciferase transactivation in transfected HEK293T cells, with progesterone 1 nM). The assay is classed as cell-based. As to conditions: 24 hours, progesterone 1 nM plus increasing amounts, Figure 2. How it is done:
The main experimental setting used is the following: HEK293T cells were transiently transfected, using calcium phosphate precipitation technology, with expression vectors pSG5hPR (which permits expression of human progesterone receptor(PR)), pFC31-luc (contains the luciferase gene under the control of the MMTV promoter, which is in turn activated by binding of a progestin to progesterone receptor) and pcbetagal (which permits expression of betagalactosidase), and cultured during 24 hours with increasing amounts of various compositions: • 1. […] Test of progesterone receptor […] activity: transfected cells were cultured with progesterone (1 nM) and increasing amounts of RU486 (a well-known progesterone receptor antagonist) or 3-methoxy-pregnenolone. With this setting, a compound with progesterone receptor antagonist activity competes with progesterone for the occupation of progesterone receptor and results in a progressive loss of transactivation activity when the amount of this compound is increased compared to progesterone.

For assay [2], the target named is T2, ERβ (Homo sapiens, UniProt Q92731).
T2 construct: host or cells: Sf9 cells
The experiment in a line: Radioligand binding assay, steroid hormone receptor ERβ. As to conditions: MAP4343 10 µM; 0.5 nM [^3H] Estradiol; Human recombinant Sf9 cells; second ER row. How it is done:
Binding affinity of 3β-methoxy-PREG (MAP4343) for receptors of steroid hormones was evaluated using radioligand binding assays.
Table 3. Affinity of MAP4343 (10 µM) for steroid hormones receptors measured by radioligand binding assays. […] None of the results met significance criteria at concentrations used.

Assay [3] has as its target Noradrenergic β1 (Homo sapiens, UniProt P08588). The experiment in a line: CNS receptor binding assay, β1. As to conditions: MAP4343 10 µM; [^3H] (-) CGP 12177; Human recombinant (HEK-293 cells); read-out: % Inhibition of control specific binding. How it is done:
(§1) MAP4343 has been screened for in vitro affinity to 80 different CNS neurotransmitters receptors using various validated binding assays.
(§2) Table 4. In vitro affinity of MAP4343 (10 µM) for CNS neurotransmitter receptors associated with side effects and/or abuse liability. Data are the average of two individual assays for each receptor and are expressed as % inhibition of the control specific binding of the reference compound. Results showing an inhibition higher than 50% are considered to represent significant effects of the test compound.

Assay [4] has as its target Noradrenergic β2 (Homo sapiens, UniProt P07550). The assay can be described thus: CNS receptor binding assay, β2. To be noted: MAP4343 10 µM; [^3H] (-) CGP 12178; Human recombinant (CHO cells); read-out: % Inhibition of control specific binding. On the procedure:
as §1, §2

Assay [5] addresses Serotoninergic 5-HT1A (Homo sapiens, UniProt P08908). The experiment in a line: CNS receptor binding assay, 5-HT1A. As to conditions: MAP4343 10 µM; [^3H] 8-OH-DPAT; Human recombinant (HEK-293 cells); read-out: % Inhibition of control specific binding. How it is done:
as §1, §2

Assay [6] deals with 80 different CNS neurotransmitters receptors. The assay can be described thus: Screen for in vitro affinity to 80 CNS neurotransmitter receptors. Type of assay: binding. As to conditions: MAP4343 10 µM; inhibition higher than 50% considered significant. How it is done:
as §1, §2

In assay [7] the test system is Wistar (WI) rats. The experiment in a line: Forced swimming test (FST), WI rats. Type of assay: in vivo, rat. As to conditions: dose-ranging, Fig. 6A. How it is done:
3B-methoxy-PREG (also referred to as "MAP4343" in Example 4) was dissolved in sesame oil by sonication using a Sonifer-450 (Branson Ultrasonics Corporation, Danbury, USA) during 1 cycle of 5 pulses in sesame oil. Fluoxetine (Biotrend, Köln, Germany) and Ketamine (Sigma-Aldrich, St-Quentin Fallvier, France) were dissolved in sterile saline solution (NaCl 0.9%). The drug formulations were prepared freshly each day of treatment. MAP4343 was administered subcutaneously (ranging of 1-15 mg/Kg/day) while fluoxetine and ketamine were injected intraperitonealy (10 mg/Kg/day and 30 mg/Kg/day, respectively).
Rats were submitted to the forced swimming test (FST), according the procedure initially described by (Detke et al., 1995) and slightly modified by (Bianchi et al., 2002). Briefly, rats were individually placed into a Plexiglas cylinder (40 cm height, 20 cm diameter) containing 25 cm of water at 25 ± 1°C, under 50 lux illumination. After a pre-test session of 15 min, rats were removed, dried and returned to its housed cage. […] The pre-test and test sessions were recorded using a video camera placed above the cylinder for subsequent behavioral analysis. The immobility time (in sec) was blindly measured by two independent experimenters from recorded videos. […]
The effects of a dose-ranging administration of MAP4343 were tested in WI and WKY rats on their immobility time measured in FST.

T2 sequence (Q92731 whole entry): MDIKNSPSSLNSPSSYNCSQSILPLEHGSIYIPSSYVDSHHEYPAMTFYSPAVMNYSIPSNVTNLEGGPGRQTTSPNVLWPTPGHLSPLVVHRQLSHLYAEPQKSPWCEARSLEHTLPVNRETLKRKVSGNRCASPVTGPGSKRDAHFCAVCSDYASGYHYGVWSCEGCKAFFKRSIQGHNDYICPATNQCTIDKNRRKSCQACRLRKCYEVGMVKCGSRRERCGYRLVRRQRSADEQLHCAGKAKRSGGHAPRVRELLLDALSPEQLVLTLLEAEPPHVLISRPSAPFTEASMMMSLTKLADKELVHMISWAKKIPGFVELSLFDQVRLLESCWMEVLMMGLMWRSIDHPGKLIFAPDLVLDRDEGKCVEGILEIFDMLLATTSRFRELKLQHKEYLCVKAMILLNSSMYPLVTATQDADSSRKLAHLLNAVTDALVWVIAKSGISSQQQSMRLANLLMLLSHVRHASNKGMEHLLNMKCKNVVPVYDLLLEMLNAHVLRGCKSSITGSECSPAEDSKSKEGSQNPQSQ
Noradrenergic β1, sequence (P08588 whole entry): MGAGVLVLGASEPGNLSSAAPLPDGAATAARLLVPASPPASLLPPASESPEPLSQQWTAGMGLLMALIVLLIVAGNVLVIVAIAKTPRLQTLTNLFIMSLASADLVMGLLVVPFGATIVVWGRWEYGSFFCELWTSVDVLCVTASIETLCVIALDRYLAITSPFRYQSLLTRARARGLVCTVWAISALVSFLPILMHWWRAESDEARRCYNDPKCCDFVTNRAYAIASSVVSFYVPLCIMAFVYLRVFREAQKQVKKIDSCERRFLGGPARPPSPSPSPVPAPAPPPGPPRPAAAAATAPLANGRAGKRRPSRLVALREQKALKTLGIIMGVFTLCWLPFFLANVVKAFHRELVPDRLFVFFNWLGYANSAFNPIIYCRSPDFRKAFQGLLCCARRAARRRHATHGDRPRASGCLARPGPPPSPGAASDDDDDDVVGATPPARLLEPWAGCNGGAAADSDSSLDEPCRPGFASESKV
Serotoninergic 5-HT1A, sequence (P08908 whole entry): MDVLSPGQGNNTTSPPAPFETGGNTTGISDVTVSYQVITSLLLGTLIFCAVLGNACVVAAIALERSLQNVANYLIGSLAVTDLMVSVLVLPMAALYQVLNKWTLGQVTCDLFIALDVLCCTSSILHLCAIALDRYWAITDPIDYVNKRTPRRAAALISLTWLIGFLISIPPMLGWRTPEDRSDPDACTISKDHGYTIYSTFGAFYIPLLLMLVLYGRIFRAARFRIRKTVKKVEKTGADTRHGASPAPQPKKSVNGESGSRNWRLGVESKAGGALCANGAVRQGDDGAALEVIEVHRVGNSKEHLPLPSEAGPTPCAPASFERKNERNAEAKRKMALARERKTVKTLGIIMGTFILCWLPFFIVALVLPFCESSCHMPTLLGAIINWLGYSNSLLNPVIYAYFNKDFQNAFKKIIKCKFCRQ
Noradrenergic β2, sequence (P07550 whole entry): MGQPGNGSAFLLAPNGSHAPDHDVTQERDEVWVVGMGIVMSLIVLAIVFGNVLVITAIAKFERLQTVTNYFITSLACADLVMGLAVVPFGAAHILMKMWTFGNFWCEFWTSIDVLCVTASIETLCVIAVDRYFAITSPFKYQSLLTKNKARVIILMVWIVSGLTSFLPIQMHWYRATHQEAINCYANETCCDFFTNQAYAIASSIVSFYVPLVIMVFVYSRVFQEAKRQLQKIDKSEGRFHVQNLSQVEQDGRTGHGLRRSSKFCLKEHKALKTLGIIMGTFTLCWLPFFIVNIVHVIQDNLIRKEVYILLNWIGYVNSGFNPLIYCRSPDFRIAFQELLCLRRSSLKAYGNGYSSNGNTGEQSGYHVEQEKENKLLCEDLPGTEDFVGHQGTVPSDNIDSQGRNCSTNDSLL

`CO[C@H]1CC[C@@]2(C)C(=CC[C@H]3[C@@H]4CC[C@H](C(C)=O)[C@@]4(C)CC[C@@H]32)C1` (stereo in doubt) [MAP4343, 3β-methoxy-pregna-5-ene-20-one]: the “progesterone receptor antagonist activity” value in assay [1] is listed as “weak progesterone receptor antagonist”. The % inhibition (in general, the drop in the measured response relative to a control, in per cent) in assay [2] was found to be 16%. Further, the inhibition – broadly, the drop in the measured response relative to a control, in per cent – at 10 µM is below 25% in assay [2], 1% in assay [3], -4% in assay [4] and 2% in assay [5]. The “in vitro affinity for tested receptors” value in assay [6] is “no significant affinity for any tested receptor”. Moreover, the results for the “immobility time measured in FST, change as compared to WI receiving vehicle alone” value in assay [7] (MAP4343 10 mg/kg) and in assay [7] (MAP4343 15 mg/kg) were -27% and -31%, respectively.

The record behind these values is patent EP3436024B1, “3-BETA-METHOXY-PREG FOR USE IN THE TREATMENT OF TREATMENT RESISTANT DEPRESSION” (Mapreg, priority 2016, dated 2017).
